Source: US20250099440A1, “A PHARMACEUTICAL COMBINATION AND USE THEREOF” (Ascentage Pharma (Suzhou) Co., Ltd., priority 2021, published 2025)

Experiments:
NCI-H929 = assay: Cell viability CTG assay in BCL-2i resistant MM model NCI-H929; assay type: cell-based; conditions: insensitive or resistant to BCL-2 inhibitor
Experimental: (§1) Cell viability was determined using CellTiter-Glo® luminescent cell viability assay (Promega) or WST assay (Cell counting Kit-8, Shanghai life iLab, China) by following manufacturer's instruction. Cell viability was calculated as cell viability=(mean RLU sample−mean RLU blank)/(RLU cell control−RLU blank)×100. IC50 value was calculated using GraphPad Prism. Combination index (CI) value was calculated by CalcuSyn software (BIOSOFT, UK). CI<0.9 indicate a synergistic combination effect. CI<0.1 scored as 5+ indicates very strong synergistic combination effect, CI between 0.1 and 0.3 scored as 4+ indicates strong synergistic combination effect, CI between 0.3 and 0.7 scored as 3+ indicates medium synergistic combination effect.
Method used was the cell viability CTG assay. BCL-2i resistant MM mode NCI-H929 was established.

platelet = conditions: compared with Compound E; cited from earlier work
KMS34 [1] = assay: CDX model of KMS34; assay type: in vivo
MM1.S [2] = assay: CDX model of MM1.S; assay type: in vivo
[3] = system: RS4;11 cells carrying different Bcl-2 mutation; assay: Cell viability CTG assay in RS4;11 cells, wild type and Bcl-2 mutants; assay type: cell-based, human
Experimental: Cell viability was determined using CellTiter-Glo® luminescent cell viability assay (Promega) or WST assay (Cell counting Kit-8, Shanghai life iLab, China) by following manufacturer's instruction. Cell viability was calculated as cell viability=(mean RLU sample−mean RLU blank)/(RLU cell control−RLU blank)×100. IC50 value was calculated using GraphPad Prism. Combination index (CI) value was calculated by CalcuSyn software (BIOSOFT, UK). CI<0.9 indicate a synergistic combination effect. CI<0.1 scored as 5+ indicates very strong synergistic combination effect, CI between 0.1 and 0.3 scored as 4+ indicates strong synergistic combination effect, CI between 0.3 and 0.7 scored as 3+ indicates medium synergistic combination effect. Method used was the cell viability CTG assay. RS4;11 cells were established from the bone marrow of a patient with acute lymphoblastic leukemia (ALL).

MM1.S [4] = assay: Cell death in Venetoclax-resistant MM cell line MM1.S; assay type: cell-based; conditions: compared with Venetoclax and Navitoclax
KMS34 [5] = assay: Cell death in Venetoclax-resistant MM cell line KMS34; assay type: cell-based; conditions: compared with Venetoclax and Navitoclax
RPMI 8226 cells = assay: Cell viability CTG assay in BCL-2i insensitive RPMI 8226 MM cells; assay type: cell-based
Experimental: as §1
Method used was the cell viability CTG assay.

primary MM cells = assay: Primary MM cells from 4 MM patients in vitro; assay type: cell-based, human; conditions: compared with venetoclax
Excerpt: The activity of compound E was confirmed in primary MM cells in vitro.

[6] = system: KMS27 drug-resistant (DTEP) clones; assay: Venetoclax-resistant DTEP clones of KMS27 MM cell line: proliferation and apoptosis; assay type: cell-based
Excerpt: Compared with the parent cells, IC50 is increased by at least 3 to 10 times.

Structure (SMILES): CN[C@@H](C)C(=O)N[C@H]1CN(S(=O)(=O)c2cccc(S(=O)(=O)N3CC[C@H]4CC[C@@H](C(=O)NC(c5ccccc5)c5ccccc5)N4C(=O)[C@@H](NC(=O)[C@H](C)NC)C3)c2)CC[C@H]2CC[C@@H](C(=O)NC(c3ccccc3)c3ccccc3)N2C1=O [APG-1387]
- inhibition of cell proliferation (NCI-H929): single agent activity to inhibit cell proliferation

Structure (SMILES): Cc1c(S(C)(=O)=O)c(-c2cc(F)cc(N3CCN(c4ccc(NS(=O)(=O)c5ccc(N[C@H](CCN6CCC(C(=O)OCCCP(=O)(O)O)CC6)CSc6ccccc6)c(S(=O)(=O)C(F)(F)F)c5)cc4)CC3)c2)c(-c2ccc(Cl)cc2)n1C(C)C [compound D, (3R)-1-(3-(4-(4-(4-(3-(2-(4-chlorophenyl)-1-isopropyl-4-methylsulfonyl-5-methyl-1H-pyrrol-3-yl)-5-fluorophenyl)piperazin-1-yl)-phenylaminosulfonyl)-2-trifluoromethylsulfonyl-anilino)-4-phenylthio-butyl)-piperidine-4-carboxylic acid 3-phosphonopropyl ester]
- platelet toxicity (platelet): lower platelet toxicity
- efficacy in CDX model (KMS34 [1]): also effective
- efficacy in CDX model (MM1.S [2]): also effective

Structure (SMILES): CCN1[C@@H](C(=O)NC23CCC(C(=O)O)(CC2)CC3)[C@H](c2cccc(Cl)c2F)[C@]2(C(=O)Nc3cc(Cl)ccc32)C12CCCCC2 [APG-115]
- cell viability ([3]; RS4;11-WT and RS4;11 carrying G101V, D103E, V156D, G101V-D103E, CTG): effectively decrease cell viability
- IC50 (CTG 72 h) compared with ABT-199 (venetoclax) ([3]; all RS4;11 cell lines (WT and Bcl-2 mutants), 72 h): lower than those of ABT-199 (venetoclax) in all cell lines

Structure (SMILES): Cc1c(S(C)(=O)=O)c(-c2cc(F)cc(N3CCN(c4ccc(NS(=O)(=O)c5ccc(N[C@H](CCN6CCC(C(=O)O)CC6)CSc6ccccc6)c(S(=O)(=O)C(F)(F)F)c5)cc4)CC3)c2)c(-c2ccc(Cl)cc2)n1C(C)C [APG-1252M1]
- cell death induction (MM1.S [4]): the most effective in inducing cell death
- cell death induction (KMS34 [5]): the most effective in inducing cell death
- inhibition of cell proliferation (RPMI 8226 cells; RPMI 8226 model, insensitive to BCL-2 inhibitor): single agent activity in inhibiting cell proliferation
- activity in primary MM cells (primary MM cells): higher than venetoclax
- apoptosis [6]: induced apoptosis
- proliferation of drug-resistant clones ([6]; compared with Venetoclax): successfully inhibited the proliferation of drug-resistant clones

Structure (SMILES): O=C(NS(=O)(=O)c1ccc(NC[C@H]2COCCO2)c([N+](=O)[O-])c1)c1ccc(N2CCN(CC3=C(c4ccc(Cl)cc4)CC4(CCC4)CC3)CC2)cc1Oc1cnc2[nH]ccc2c1 [APG-2575, (S)—N-((4-(((1,4-dioxan-2-yl)methyl)amino)-3-nitrophenyl)sulfonyl)-2-((1H-pyrrolo[2,3-b]pyridin-5-yl)oxy)-4-(4-((6-(4-chlorophenyl)spiro[3.5]non-6-en-7-yl)methyl)piperazin-1-yl)benzamide]
- IC50 (RPMI 8226 cells; Homo sapiens, RPMI 8226 cells, CTG): 5.58 µM
